Laboratory results from PMC10726440, “N-Biphenyl Pyrrolinones and Dibenzofurans as RNA-Binding Protein LIN28 Inhibitors Disrupting the LIN28–Let-7 Interaction” (ACS Medicinal Chemistry Letters, 2023).
Where “and” joins values, the source holds several entries; their conditions need not be identical. Identical values can stand only once. Like-named read-outs stand apart in the source and are kept apart here.

Biological target: T1, LIN28A(16–187)–let-7 interaction (Homo sapiens, UniProt Q9H9Z2)
T1 construct: LIN28A(16–187) or LIN28B(24–111); pET19a or pMAL vector) (cleaved yes); made in house; host or cells: Escherichia coli BL21(DE3)
T1 sequence (Q9H9Z2 16-187): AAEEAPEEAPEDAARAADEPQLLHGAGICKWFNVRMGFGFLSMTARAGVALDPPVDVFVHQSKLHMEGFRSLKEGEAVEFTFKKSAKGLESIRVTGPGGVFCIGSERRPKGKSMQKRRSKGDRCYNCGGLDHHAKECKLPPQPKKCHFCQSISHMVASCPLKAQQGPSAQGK
Assay: Electrophoretic mobility shift assay (EMSA), disruption of LIN28–let-7 complex
Assay type: binding
Settings: for inhibition at 75 µM: read-out: inhibition of the LIN28–let-7 interaction measured in EMSA; for IC50: concentration-dependent EMSA, some values estimated, read-out: IC50 in dose–response EMSA; for inhibition of LIN28–let-7 complex formation in concentration-dependent EMSA (in words): dose–response EMSA
Method: Inhibition of the LIN28–let-7 complex was evaluated by electrophoretic mobility shift assays. Mixtures containing compound at indicated concentrations, LIN28A(16–187) or LIN28B(24–111), and recombinant ribonuclease inhibitor (TaKaRa Bio) were incubated at room temperature for 2 h. The reaction buffer contained 50 mM TRIS, pH 7.5, 100 mM NaCl, 10 mM β-mercaptoethanol, 50 μM ZnCl2, 2% DMSO, 0.01% Tween-20 and 12% glycerol. Cy-3-fluorophore labeled RNA, (pre-E let-7f-1-Cy3, Mus musculus, […]-Cy3, purchased from IDT) was added to the reaction and incubated for further 15 min. The final concentrations were as follows: 10 nM LIN28A or 200 nM LIN28B, 5 nM RNA. Of each mixture, 10 μL was analyzed on a nondenaturing PAGE (5.3% acrylamide TAE PAGE for full-length LIN28 and 10% acrylamide TAE PAGE for analysis of the CSD) prerun for 1 h without sample and run for 1 h at 220 V at 4 °C in 0.25× TAE buffer. Gels were imaged using a ChemiDoc MP instrument (Bio-Rad Laboratories). Band intensities were analyzed using ImageJ and inhibition was quantified by calculation of the ratio of free RNA fluorescence to the fluorescence of the protein–RNA complex, and normalization to free RNA and LIN28–let-7 complex controls. The intensity ratio was analyzed by nonlinear regression fit in GraphPad Prism to determine the IC50 values.

[1] = single concentration of 75 μM, 75 µM

| inhibition at 75 µM (single concentration of 75 μM) [%] | inhibition of the LIN28–let-7 interaction measured in EMSA (single concentration of 75 μM) | SMILES | also measured |
| --- | --- | --- | --- |
| 70.7 |  | O=C(C1=C(O)C(=O)N(c2ccc(O)c(C(=O)O)c2)C1c1ccc2cn[nH]c2c1)c1ccccc1 (stereo not shown) [Compound 7] | IC50: 34 µM |
|  | inactive | O=C(O)c1cc(N2C(=O)c3nn(Cc4ccccc4)c(-c4ccccc4)c3C2c2ccc([N+](=O)[O-])cc2)ccc1O (stereo not shown) [Compound 14] |  |
|  | inactive | NC1=C(C(=O)c2ccccc2)[C@@H](c2ccc([N+](=O)[O-])cc2)N(c2ccc(O)c(C(=O)O)c2)C1=O [Compound 22] | inhibition of the LIN28–let-7 interaction measured in EMSA [1]: none of these aforementioned enantiomerically pure molecules were active |
|  | inactive | O=C(O)c1cc(N2C(=O)c3c(c(-c4ccccc4)nn3Cc3ccccc3)C2c2ccc([N+](=O)[O-])cc2)ccc1O (stereo not shown) [Compound 15] |  |
| 87 |  | COc1ccc(C(=O)C2=C(O)C(=O)N(c3cccc(-c4ccccc4)c3)C2c2ccc([N+](=O)[O-])cc2)cc1 (stereo not shown) [Compound 31] |  |
| 97 |  | O=C(C1=C(O)C(=O)N(c2ccc3c(c2)oc2ccccc23)C1c1ccc([N+](=O)[O-])cc1)c1ccccc1 (stereo not shown) [Compound 45] | inhibition of LIN28–let-7 complex formation in concentration-dependent EMSA (in words): best inhibitory activities among the evaluated molecules |
| ≥ 60 |  | Cc1ccc(C(=O)C2=C(O)C(=O)N(c3ccc(O)c(C(=O)O)c3)C2c2ccc([N+](=O)[O-])cc2)cc1 (stereo not shown) [Compound 3] | IC50: 33 µM |
| ≥ 60 | active | O=C(O)c1cc(N2C(=O)C(O)=C(c3nccs3)C2c2ccc([N+](=O)[O-])cc2)ccc1O (stereo not shown) [Compound 5] | IC50: 32 µM |
| 84.1 |  | Nc1ccc(C2C(C(=O)c3ccccc3)=C(O)C(=O)N2c2ccc(O)c(C(=O)O)c2)cc1 (stereo not shown) [Compound 10] | IC50: < 15 µM and 5 to 15 µM |
| 76.5 |  | O=C(C1=C(O)C(=O)N(CCCc2ccccc2)C1c1ccc([N+](=O)[O-])cc1)c1ccccc1 (stereo not shown) [Compound 12] | IC50: < 15 µM and 5 to 15 µM; inhibition of the LIN28–let-7 interaction measured in EMSA [1]: 77% |
| 73 |  | O=C(C1=C(O)C(=O)N(c2cccc(-c3ccccc3)c2)C1c1ccc([N+](=O)[O-])cc1)c1ccc(Br)cc1 (stereo not shown) [Compound 30] |  |
| 76 |  | O=C(C1=C(O)C(=O)N(c2cccc(-c3ccccc3)c2)C1c1ccc([N+](=O)[O-])cc1)c1ccc(F)cc1 (stereo not shown) [Compound 32] |  |
| 94 |  | O=C(C1=C(O)C(=O)N(c2ccc3oc4ccccc4c3c2)C1c1ccc([N+](=O)[O-])cc1)c1ccccc1 (stereo not shown) [Compound 40] |  |
|  | inactive | N=C1CC=CC=C1C1=C(N)C(=O)N(c2ccc(O)c(C(=O)O)c2)[C@@H]1c1ccc([N+](=O)[O-])cc1 [Compound 23] | inhibition of the LIN28–let-7 interaction measured in EMSA [1]: none of these aforementioned enantiomerically pure molecules were active |
| 102 | active | COc1ccc(CN/C(=C2\C(=O)C(=O)N(c3ccc(O)c(C(=O)O)c3)C2c2ccc([N+](=O)[O-])cc2)c2ccccc2)cc1 (stereo not shown) [Compound 13] | IC50: 26 µM |
| 8 |  | O=C(C1=C(O)C(=O)N(c2cccc(-c3ccccc3)c2)C1c1ccc([N+](=O)[O-])cc1)c1nccs1 (stereo not shown) [Compound 38] |  |
| 95.4 |  | O=C(C1=C(O)C(=O)N(c2ccc(O)c(C(=O)O)c2)C1c1ccc2[nH]nnc2c1)c1ccccc1 (stereo not shown) [Compound 6] | IC50: 20 µM and ~20 µM |
| 99.9 |  | O=C(C1=C(O)C(=O)N(c2ccc(O)c(C(=O)O)c2)C1c1ccc2cnccc2c1)c1ccccc1 (stereo not shown) [Compound 9] | IC50: < 15 µM and ~5 µM |
|  | not active | O=C(C1=C(O)C(=O)N(c2ccc(O)c(C(=O)O)c2)C1c1ccc([N+](=O)[O-])cc1)c1ccccc1 (stereo not shown) [Compound 2] |  |

Second part, the molecule before the results:

| SMILES | inhibition at 75 µM (single concentration of 75 μM) [%] | inhibition of the LIN28–let-7 interaction measured in EMSA (single concentration of 75 μM) | also measured |
| --- | --- | --- | --- |
| O=C(C1=C(O)C(=O)N(c2ccc3oc4ccccc4c3c2)C1c1ccc([N+](=O)[O-])cc1)c1ccco1 (stereo not shown) [Compound 44] | 90 |  |  |
| O=C(O)c1cc(N2C(=O)C(O)=C(Cc3ccccc3)[C@H]2c2ccc([N+](=O)[O-])cc2)ccc1O [Compound 19] |  | none of these aforementioned enantiomerically pure molecules were active |  |
| O=C(C1=C(O)C(=O)N(c2cccc([N+](=O)[O-])c2)[C@H]1c1ccc([N+](=O)[O-])cc1)c1ccccc1 [Compound 20] |  | none of these aforementioned enantiomerically pure molecules were active |  |
| O=C(C1=C(O)C(=O)N(c2ccc3oc4ccccc4c3c2)C1c1ccc([N+](=O)[O-])cc1)c1ccc(Br)cc1 (stereo not shown) [Compound 41] | 53 |  |  |
| O=C(C1=C(O)C(=O)N(c2cccc(-c3ccccc3)c2)C1c1ccc([N+](=O)[O-])cc1)c1ccco1 (stereo not shown) [Compound 35] | 87 |  | IC50: ~45 µM |
| O=C(C1=C(O)C(=O)N(c2ccc3c(c2)oc2ccccc23)C1c1ccc([N+](=O)[O-])cc1)c1ccc(Br)cc1 (stereo not shown) [Compound 46] | 86 |  |  |
| O=C(C1=C(O)C(=O)N(c2cccc(-c3ccccc3)c2)C1c1ccc([N+](=O)[O-])cc1)C1CCCCC1 (stereo not shown) [Compound 24] | 49 |  |  |
| Cc1ccc(C(=O)C2=C(O)C(=O)N(c3cccc(-c4ccccc4)c3)C2c2ccc([N+](=O)[O-])cc2)o1 (stereo not shown) [Compound 36] | 83 |  |  |
| O=C(C1=C(O)C(=O)N(c2ccc3c(c2)oc2ccccc23)C1c1ccc([N+](=O)[O-])cc1)c1ccc(F)cc1 (stereo not shown) [Compound 48] | 93 |  |  |
| O=C(C1=C(O)C(=O)N(c2cccc([N+](=O)[O-])c2)[C@@H]1c1ccc([N+](=O)[O-])cc1)c1ccccc1 [Compound 21] |  | none of these aforementioned enantiomerically pure molecules were active |  |
| O=C(C1=C(O)C(=O)N(c2cccc(-c3ccccc3)c2)C1c1ccc([N+](=O)[O-])cc1)C1CCC1 (stereo not shown) [Compound 26] | 8 |  |  |
| COc1ccc(C(=O)C2=C(O)C(=O)N(c3ccc4oc5ccccc5c4c3)C2c2ccc([N+](=O)[O-])cc2)cc1 (stereo not shown) [Compound 42] | 74 |  |  |
| O=C(C1=C(O)C(=O)N(c2ccc(O)c(C(=O)O)c2)C1c1ccc([N+](=O)[O-])cc1)c1ccccn1 (stereo not shown) [Compound 4] |  |  | IC50: 19 µM and ~19 µM |
| Cn1cccc1C(=O)C1=C(O)C(=O)N(c2cccc(-c3ccccc3)c2)C1c1ccc([N+](=O)[O-])cc1 (stereo not shown) [Compound 37] | 75 |  |  |
| O=C(C1=C(O)C(=O)N(c2ccc3c(c2)oc2ccccc23)C1c1ccc([N+](=O)[O-])cc1)c1ccco1 (stereo not shown) [Compound 49] | 95 |  | inhibition of LIN28–let-7 complex formation in concentration-dependent EMSA (in words): best inhibitory activities among the evaluated molecules |
| O=C(C1=C(O)C(=O)N(c2cccc(-c3ccccc3)c2)C1c1ccc([N+](=O)[O-])cc1)c1ccc(C(F)(F)F)cc1 (stereo not shown) [Compound 39] | 40 |  |  |
| O=C(C1=C(O)C(=O)N(c2ccc3oc4ccccc4c3c2)C1c1ccc([N+](=O)[O-])cc1)c1ccc(F)cc1 (stereo not shown) [Compound 43] | 60 |  |  |
| O=C(C1=C(O)C(=O)N(c2ccc(O)c(C(=O)O)c2)[C@@H]1c1ccc([N+](=O)[O-])cc1)c1ccc(Cl)cc1 [Compound 16] |  | none of these aforementioned enantiomerically pure molecules were active |  |
| O=C(O)c1cc(N2C(=O)C(O)=C(Cc3ccccc3)[C@@H]2c2ccc([N+](=O)[O-])cc2)ccc1O [Compound 18] |  | none of these aforementioned enantiomerically pure molecules were active |  |
| O=C(C1=C(O)C(=O)N(c2ccc(O)c(C(=O)O)c2)[C@H]1c1ccc([N+](=O)[O-])cc1)c1ccc(Cl)cc1 [Compound 17] |  | none of these aforementioned enantiomerically pure molecules were active |  |
| O=C(C1=C(O)C(=O)N(c2cccc(-c3ccccc3)c2)C1c1ccc([N+](=O)[O-])cc1)c1ccc([N+](=O)[O-])c(O)c1 (stereo not shown) [Compound 34] |  |  | inhibition at 75 µM: 49% |
| COc1ccc(C(=O)C2=C(O)C(=O)N(c3ccc4c(c3)oc3ccccc34)C2c2ccc([N+](=O)[O-])cc2)cc1 (stereo not shown) [Compound 47] | 87 |  |  |
| O=C(C1=C(O)C(=O)N(c2cccc(-c3ccccc3)c2)C1c1ccc([N+](=O)[O-])cc1)c1ccccc1F (stereo not shown) [Compound 33] | 98 |  |  |
